The assay has as its system post viral cough. The assay can be described thus: Informal single-subject study of post viral cough exacerbation. To be noted: self-administration, subjective.

Each structure is given as a SMILES string.

`COc1ccc2c3c1O[C@H]1[C@@H](O)C=C[C@H]4[C@@H](C2)N(C)CC[C@@]341` [codeine]: the subject-reported relief entry is recorded as “dramatic relief”.
